Reference: ChEMBL document CHEMBL4837226, “Discovery of pyrrole derivatives for the treatment of glioblastoma and chronic myeloid leukemia” (Eur J Med Chem, 2021)
The source made the active and inactive calls. No cut-off for these calls is given here.

Legend:
[1] = Cytotoxicity against human U-343MG cells assessed as cell growth inhibition measured after 72 hrs by MTS colorimetric assay; assay type: functional, cell-based
[2] = tested on: KBM5; assay: Induction of apoptosis in human KBM5 cells expressing T315I mutant assessed as decrease in […] expression at 1 to 10 uM measured after 24 hrs by Western blot analysis; assay type: functional, cell-based; conditions: dose 1-10 µM
[3] = tested on: KU812 cell line; assay: Potentiation of ponatinib-induced apoptosis in human KU812 cells assessed as increase in apoptotic cells at 5 nM measured after 48 hrs by annexin V staining based flow cytometry analysis; assay type: functional, cell-based
[4] = tested on: U-87 MG; assay: Antitumor activity against human U-87MG cells xenografted in BALB/c nu/nu mouse assessed as reduction in CD31 marker expression at 25 mg/kg, ip administered every 2 days for 35 days by DAPI staining based immunofluorescence analysis; assay type: functional, organism-based; conditions: U-87MG ATCC, time 35.0 day
[5] = tested on: SW480; assay: Cytotoxicity against human SW480 cells assessed as cell growth inhibition measured after 48 hrs by XTT dye based assay; assay type: functional; conditions: SW480, 48 h
[6] = tested on: KBM5; assay: Induction of apoptosis in human KBM5 cells expressing T315I mutant assessed as increase in cytochrome C expression at 1 to 10 uM measured after 24 hrs by western blot analysis; assay type: functional, cell-based; conditions: dose 1-10 µM
[7] = target: Tubulin; assay: Inhibition of tubulin polymerization (unknown origin) assessed as reduction in tubulin assembly preincubated for 15 mins followed by GTP addition by spectrophotometric method; assay type: protein-complex assay, Homo sapiens
[8] = target: DNA topoisomerase II (Homo sapiens) (UniProt P11388+Q02880); assay: Inhibition of human topoisomerase II assessed as reduction in decantenation using kinetoplast DNA as a substrate at 10 to 50 uM measured after 1 hr by ethidium bromide staining based agarose gel electrophoresis analysis; assay type: protein assay; conditions: dose 10-50 µM
[9] = tested on: MCF7; assay: Cytotoxicity against human MCF7 cells assessed as cell growth inhibition measured after 96 hrs; assay type: functional, cell-based; conditions: MCF7, 96 h
[10] = tested on: U-87 MG; assay: Antitumor activity against human U-87MG cells xenografted in BALB/c nu/nu mouse assessed as reduction in CD133 marker expression at 25 mg/kg, ip administered every 2 days for 35 days by DAPI staining based immunofluorescence analysis; assay type: functional, organism-based; conditions: U-87MG ATCC, time 35.0 day
[11] = tested on: U-87 MG; assay: Antitumor activity against human U-87MG cells xenografted in BALB/c nu/nu mouse assessed as reduction in tumor volume at 25 mg/kg, ip administered every 2 days for 35 days; assay type: functional, organism-based; conditions: U-87MG ATCC, time 35.0 day

IC50 [7]: 390 nM | inhibition [8]: inactive
Structure (SMILES): COc1cc(C(=O)c2cn(-c3ccc(C)cc3)cc2-c2ccsc2)cc(OC)c1OC
IC50 [1]: 18.6 nM | Activity [2]: Active | Activity [3]: Active | Activity [4]: Active | IC50 [5]: 656 nM | Activity [6]: Active | IC50 [9]: 4 nM | Activity [10]: Active | Activity [11]: Active
